Here are results for four compounds from patent publication US20200009110A1, “METHOD FOR TREATING AN ALLERGIC DISEASE” (Arjil Biotech Holding Company Limited, priority 2018, published 2020).

Assay [1] relates to TNF-α secretion in DCs from C57BL/6 mice. The assay is described as follows: ELISA assay for TNF-α secretion by LPS-stimulated dendritic cells. The format is cell-based. The following applies: AR001DS1 12.5, 25, 50 and 100 μg/ml. Here is the method: DCs were isolated from C57BL/6 mice and incubated at 37° C. for 7 days. Then DCs were plated in a 24-well plate and cultured at 37° C. overnight in a 5% CO2 atmosphere. DCs were treated with AR001DS1 (12.5, 25, 50 and 100 μg/ml) for 1 h, and then stimulated with lipopolysaccharide (LPS) for 4 h. The supernatants were collected and TNF-α secretion in culture supernatants was quantitated using an ELISA assay.

Assay [2] relates to animal model of gout arthritis. The assay is described as follows: Animal model of gout arthritis. Conditions: in vivo.
Assay [3] relates to PMA-induced cytokines in THP-1 cells. The assay is described as follows: Bio-plex human 27-plex cytokine assay in PMA treated THP-1 cells. The format is cell-based. The following applies: 10 μg/ml for 0.5 hr, then PMA 10 ng/ml for 24 hr. From the text: In addition to IL-1β, several cytokines participated in inflammatory responses. To identify cytokine networks affected by AR001DS1, we performed Bio-plex analysis to monitor the effect of AR001DS1 treatment on the expression of human 27 cytokines in PMA treated THP-1 cells.

The test system of assay [4] is RBL-2H3 cells. The assay is described as follows: β-Hexosaminidase secretion assay (mast cell degranulation). The format is cell-based. The following applies: 12.5, 25, 50 and 100 μg/ml, anti-DNP IgE-sensitized, DNP-BSA stimulated. Here is the method:
RBL-2H3 cells were plated in a 24-well plate and then sensitized with anti-dinitrophenyl (DNP)-IgE overnight at 37° C. in a 5% CO2 atmosphere. After washing, the cells were treated with AR001DS1 (12.5, 25, 50 and 100 μg/ml) at 37° C. for 30 min, and then stimulated with DNP-bovine serum albumin (BSA) at 37° C. for 30 min to induce degranulation. The supernatant was transferred to a 96-well microplate and incubated for 2 h with equal volume of 5 mM 4-nitrophenyl N-acetyl-b-glucosaminide in 0.1M citrate buffer (pH 4.5). The reaction was terminated by adding […] of stop buffer (0.05 M sodium carbonate, pH 10), and OD at 405 nm was determined using an ELISA plate reader.

The subject of assay [5] is IL-1β expression in PMA-activated THP-1 cells. As to the kind of experiment: PMA-induced IL-1β expression in THP-1 cells (Q-PCR, immunoblotting). The format is cell-based. Conditions: for IL-1β mRNA expression, treatment after activation: PMA for 24 h, followed by treatment for another 24 h; for IL-1β mRNA and protein expression, pretreatment: pretreated 0.5 h, followed by PMA induction for 48 h. The procedure:
Q-PCR analysis (left) and immunoblotting (right) for IL-1β mRNA and protein expression in THP-1 cells pretreated with AR001DS1 or AR001DS2 for 0.5 h, followed by PMA induction for 48 h.
Q-PCR analysis for IL-1β mRNA expression in THP-1 cells stimulated with PMA for 24 h, followed by treatment with or without AR001DS1 or AR001DS2 for another 24 h.
Because AR100 was composed of AR001DS1 and AR001DS2, THP-1 cells were independently pre-treated with the two components, followed by PMA activation.
Background: Immunoblotting shows a protein as a band on a membrane.

Assay [6] concerns BALB/c mice with Con A-induced hepatitis. The assay is described as follows: Con A-induced acute (autoimmune) hepatitis animal experiment. The assay is classed as in vivo. The text has this:
Concanavalin A (Con A) and dexamethasone (Dex) were purchased from Sigma-Aldrich (USA). ProcartaPlex™ Immunoassays kit was purchased from Corning Inc. (USA). GOP and GPT Fuji Dri-Chem slides were purchased from Winning Medical Inc. (Taiwan).
Male BALB/c mice (7-9 weeks old) were purchased from BioLASCO Taiwan Co., Ltd or National Laboratory Animal Center (NLAC, Taiwan). Animals were housed five per cage with food and water provided ad libitum throughout the experiments. Room temperature was maintained at 23±2° C. with an alternating 12 h light-dark cycle. Animals were acclimatized for one week to minimize the effect of stress before the experiments. All experimental protocols involving animals and their care were approved by the Institutional Animal Care and Use Committee (IACUC) in ITRI (ITRI-IACUC-2018-041 and ITRI-IACUC-2018-050; accredited by AAALAC) and were carried out according to the regulations of the Council of Agriculture, Taiwan.
Con A was dissolved in pyrogen-free saline at a concentration of 3 mg/ml and intravenously injected at a dose of 15 mg/kg or 20 mg/kg of body weight to induce hepatitis. AR100DS1 and Dex were orally administered 30 min before and then 4 h and 8 h after Con A treatment. Blood and liver tissues were collected 24 h after Con A treatment. Serum were stored at −80° C. until analysis.
To assess the level of hepatocellular injury after Con A treatment, serum GPT and GOT levels were measured by Fuji Dri-Chem slides (Fuji, Japan).
The serum of the same group were pooled for cytokine assay. Cytokine levels were measured by ProcartaPlex™ Immunoassays kit according to manufacturer's instructions.
Liver tissues were fixed in 10% phosphate-buffered formaldehyde, embedded in paraffin, and stained with hematoxylin and eosin (H&E) in order to confirm tissue lesions. Tissue lesions were examined microscopically by a veterinary pathologist at BioLASCO Taiwan Co., Ltd. The criteria of severity grading system for all microscopic lesions were graded from 0 to 4 as follows: 0=none; 1=individual cell necrosis; 2=≤30% lobular necrosis; 3=≤60% lobular necrosis; 4=22 60% lobular necrosis.
Data are presented as mean±SEM. In this study, Student's t-test was used to analyze the differences between drug-and vehicle-treated groups. The difference is regarded statistically significant when p value is less than 0.05.
Autoimmune hepatitis (AIH) is a complex disease which is characterized by hepatocellular inflammation, necrosis, and a tendency to cirrhosis. The plant lectin concanavalin A (Con A)-induced acute hepatitis in BALB/c mice is a common animal model for AIH and we performed this model to evaluate the anti-hepatitis effects of AR001DS1. Dexamethasone (Dex), one of the steroids-based standard treatments of AIH, was used as a positive control.

“Also recorded” adds a separate entry of the source.

As to `C=C1C(=O)OC2/C=C(\C)CC3C=C(CC/C=C(\C)CCC12)C(=O)O3` (stereo not drawn) [AR001DS1, ovatodiolide], in assay [1], the “secretion of TNF-α” value is “better inhibitory effect on the secretion of TNF-α in LPS-stimulated DCs than quercetin; also recorded: suppress TNF-α secretion by dendritic cells (DCs) in a dose-dependent manner”. In addition, in assay [2], the “effect on gout arthritis” value was “therapeutic effects”. In addition, in assay [3], the “IL-1β expression (Bio-plex)” value is “attenuated its expression”; the “MIP-α and -β expression (Bio-plex)” value is “blocked their expressions”; the “induction of IL-8, TNF-α and RANTES (Bio-plex)” value is “inhibited”. Besides, the “secretion of β-hexosaminidase (degranulation)” value in assay [4] is reported as “significantly inhibited; also recorded: suppress mast cell degranulation in a dose-dependent manner”. In assay [5], the “IL-1β mRNA expression, treatment after activation” value (“IL-1β mRNA expression, treatment” below) was “inhibits PMA-induced IL-1β expression”; the “IL-1β mRNA and protein expression, pretreatment” value is “blocked the expression of IL-1β; also recorded: inhibits PMA-induced IL-1β expression”. Also, in assay [5] (listed as AR100DS1), the “IL-1β mRNA expression, treatment” value is “attenuated the expression of IL-1β”. Moreover, the “liver necrosis histopathological score (0-4)” value in assay [6] (50 mg/kg oral, 15 mg/kg Con A, vehicle 1.4±0.2) is listed as 0.2±0.2. Further, the “serum GPT” value in assay [6] (50 mg/kg oral, 15 mg/kg Con A, vehicle 368±107, p<0.05) was 109±25 U/L. The “serum GOT” value in assay [6] (50 mg/kg oral, 15 mg/kg Con A, vehicle 410±56) turned out to be 261±45 U/L.

Turning to `C=CC(OC(C)=O)c1ccc(OC(C)=O)cc1` (stereo not drawn) [AR001DS2, 1′-acetoxychavicol acetate], in assay [5], the “IL-1β mRNA expression, treatment” value is “did not suppressed”; the “IL-1β mRNA and protein expression, pretreatment” value was “blocked the expression of IL-1β; also recorded: inhibits PMA-induced IL-1β expression”.

For `C[C@@H]1C[C@H]2[C@@H]3CCC4=CC(=O)C=C[C@]4(C)[C@@]3(F)[C@@H](O)C[C@]2(C)[C@@]1(O)C(=O)CO` [Dex, dexamethasone], the “serum GPT” value in assay [6] (15 mg/kg Con A, oral, Con A alone 1437±398) turned out to be 898±515 U/L; in assay [6] (20 mg/kg Con A, oral) it was 1940±403 U/L. Moreover, the “serum GOT” value in assay [6] (15 mg/kg Con A, oral, Con A alone 1450±433) is 809±339 U/L; in assay [6] (20 mg/kg Con A, oral, Con A alone 2249±549), 1261±282 U/L. Also, the “liver necrosis histopathological score (0-4)” value in assay [6] (15 mg/kg Con A, Con A alone 2.2±0.2) is recorded as 1.6±0.6; in assay [6] (20 mg/kg Con A), 2.6±0.2.

Turning to `O=c1c(O)c(-c2ccc(O)c(O)c2)oc2cc(O)cc(O)c12` [quercetin, reference compound], in assay [1], the “secretion of TNF-α” value is reported as “effectively reduced the secretion of TNF-α”.
